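At the GI50, growth is halved. The concentration for full growth arrest is given as TGI.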
How the values were obtained:
Assay in all cases: NCI-60 cell line screen, 384-well format
[1] = test system: OVCAR-3 ovarian
[2] = test system: CAKI-1 renal
[3] = test system: SK-MEL-28 melanoma
[4] = test system: T-47D breast
[5] = test system: NCI-H23 lung
[6] = test system: SR leukemia
[7] = test system: OVCAR-8 ovarian
[8] = test system: A549 NSCLC
[9] = test system: DU-145 prostate
[10] = test system: NCI-H322M lung
[11] = test system: SNB-19 CNS
[12] = test system: KM12 colon
[13] = test system: IGROV1 ovarian
[14] = test system: HOP-62 NSCLC
[15] = test system: SK-MEL-2 melanoma
[16] = test system: COLO 205 colon
[17] = test system: OVCAR-5 ovarian
[18] = test system: RXF 393 renal
[19] = test system: SF-268 CNS
[20] = test system: BT-549 breast
[21] = test system: A498 renal
[22] = test system: MOLT-4 leukemia
[23] = test system: SF-539 CNS
[24] = test system: HT29 colon
[25] = test system: HCT-116 colon
[26] = test system: UACC-257 melanoma
[27] = test system: M14 melanoma
[28] = test system: NCI-H522 lung
[29] = test system: UACC-62 melanoma
[30] = test system: NCI-H226 lung
[31] = test system: MCF7 breast
[32] = test system: TK-10 renal
[33] = test system: HCT-15 colon
[34] = test system: SK-OV-3 ovarian
[35] = test system: EKVX NSCLC
[36] = test system: K-562 leukemia
[37] = test system: OVCAR-4 ovarian
[38] = test system: SN12C renal
[39] = test system: MALME-3M melanoma
[40] = test system: MDA-MB-231 breast
[41] = test system: NCI-H460 NSCLC
[42] = test system: HL-60(TB) leukemia
[43] = test system: SK-MEL-5 melanoma
[44] = test system: MDA-MB-435 melanoma
[45] = test system: HS 578T breast
[46] = test system: SW-620 colon
[47] = test system: U251 glioblastoma
[48] = test system: SF-295 CNS
[49] = test system: ACHN renal
[50] = test system: MDA-MB-468 breast
[51] = test system: 786-0 renal
[52] = test system: HOP-92 NSCLC
[53] = test system: SNB-75 CNS
[54] = test system: UO-31 renal
[55] = test system: PC-3 prostate

Cn1cc(-c2ccc3c(c2)ncn3-c2cc(NS(=O)(=O)C3CC3)cc(-c3ccc(F)cc3F)c2)cn1
GI50 [1]: 3.15 µM | TGI [1]: 11.4 µM | GI50 [2]: 2.16 µM | TGI [2]: > 100 µM | GI50 [3]: 4.04 µM | TGI [3]: 19.5 µM | GI50 [4]: 2.63 µM | TGI [4]: 13.7 µM | GI50 [5]: 2.51 µM | TGI [5]: 14.4 µM | GI50 [6]: 1.89 µM | TGI [6]: 3.7 µM | GI50 [7]: 4.79 µM | TGI [7]: 79.6 µM | GI50 [8]: 3.42 µM | TGI [8]: > 100 µM | GI50 [9]: 4.9 µM | TGI [9]: 40.2 µM | GI50 [10]: 3.3 µM | TGI [10]: 20.7 µM | GI50 [11]: 4.05 µM | TGI [11]: > 100 µM | GI50 [12]: 3.4 µM | TGI [12]: 13.2 µM | GI50 [13]: 2.02 µM | TGI [13]: 6.92 µM | GI50 [14]: 2.39 µM | TGI [14]: 10.8 µM | GI50 [15]: 2.78 µM | TGI [15]: 7.22 µM | GI50 [16]: 11.7 µM | TGI [16]: 93.6 µM | GI50 [17]: 4.31 µM | TGI [17]: 79.4 µM | GI50 [18]: 0.183 µM | TGI [18]: 2.06 µM | GI50 [19]: 3.4 µM | TGI [19]: 61.3 µM | GI50 [20]: 1.03 µM | TGI [20]: 9.21 µM | GI50 [21]: 2.36 µM | TGI [21]: 6.03 µM | GI50 [22]: 1.62 µM | TGI [22]: 3.09 µM | GI50 [23]: 0.305 µM | TGI [23]: 2.05 µM | GI50 [24]: 3.01 µM | TGI [24]: 10.2 µM | GI50 [25]: 2.79 µM | TGI [25]: 12.3 µM | GI50 [26]: 3.02 µM | TGI [26]: 10.3 µM | GI50 [27]: 4.6 µM | TGI [27]: 47.3 µM | GI50 [28]: 1.8 µM | TGI [28]: 6.87 µM | GI50 [29]: 6.3 µM | TGI [29]: 18.9 µM | GI50 [30]: 0.344 µM | TGI [30]: 14.3 µM | GI50 [31]: 2.07 µM | TGI [31]: 12.8 µM | GI50 [32]: 2.87 µM | TGI [32]: 24.4 µM | GI50 [33]: 4.25 µM | TGI [33]: 24 µM | GI50 [34]: 2.42 µM | TGI [34]: 10.8 µM | GI50 [35]: 2.82 µM | TGI [35]: 13.5 µM | GI50 [36]: 1.81 µM | TGI [36]: 3.65 µM | GI50 [37]: 2.26 µM | TGI [37]: 37.6 µM | GI50 [38]: 2.51 µM | TGI [38]: > 100 µM | GI50 [39]: 4.55 µM | TGI [39]: 15.2 µM | GI50 [40]: 3.4 µM | TGI [40]: > 100 µM | GI50 [41]: 2.48 µM | TGI [41]: 13.7 µM | GI50 [42]: 3.2 µM | TGI [42]: 6.8 µM | GI50 [43]: 3.28 µM | TGI [43]: 15.7 µM | GI50 [44]: 4.37 µM | TGI [44]: 72.8 µM | GI50 [45]: 0.575 µM | TGI [45]: 2.44 µM | GI50 [46]: 18 µM | TGI [46]: > 100 µM | GI50 [47]: 2.15 µM | TGI [47]: 12.3 µM | GI50 [48]: 1.69 µM | TGI [48]: 4.14 µM | GI50 [49]: 2.5 µM | TGI [49]: 13.2 µM | GI50 [50]: 1.71 µM | TGI [50]: 6.44 µM | GI50 [51]: 1.99 µM | TGI [51]: 4.95 µM | GI50 [52]: 2.03 µM | TGI [52]: 12.4 µM | GI50 [53]: 0.29 µM | TGI [53]: 3.53 µM | GI50 [54]: 1.73 µM | TGI [54]: 7.66 µM | GI50 [55]: 2.92 µM | TGI [55]: 9.54 µM

— PubChem BioAssay (NCI)
